One test concerns Akt phosphorylation. Nature of the test: Akt Phosphorylation Assay (western blot), Panc-1. It is filed as cell-based, human. The conditions noted are these: at 10 μM, * = activation. An outline of the steps:
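Panc-1 (KRas G12D) cells were treated with compound at 10 μM final (0.3% DMSO) for 6 h at 37 °C, or with serial dilutions for IC50. Cells were either serum-starved overnight in 0.5% FBS and then stimulated with 1.5 ng/ml EGF for 15 min, or kept in 10% FBS without stimulation. Akt Ser473 phosphorylation in lysates was read by western blot.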

For another test, the system named is IL6. The test is described as follows: IL-6 Quantification Assay (ELISA), LPS-stimulated RAW 264.7. It is filed as cell-based. On the set-up: inhibition: dose or concentration left out as unconfirmed. The conditions noted are these: Mus musculus, RAW264.7; read-out: IL-6: % inh.
In the next test the test system is TNF-alpha. The test is described as follows: TNF-alpha Quantification Assay (ELISA), LPS-stimulated RAW 264.7. Format: cell-based. The conditions noted are these: Mus musculus, RAW264.7; at 10 μM; read-out: TNFα: % inh.
The test system of test [1] is MiaPaca-2 (expressing KRAS G12C mutant). Nature of the test: Proliferation Assay (Cell Viability Assay). Format: cell-based. The conditions noted are these: Homo sapiens, MIA PaCa-2. In a few lines: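 MiaPaca-2 cells (KRAS G12C) were grown in DMEM-high glucose with 10% FBS, seeded at 2000–5000 cells/well and cultured overnight. Compounds were added at 10 μM final, or as serial dilutions for IC50, in 0.3% DMSO/10% FBS for 2–4 days at 37 °C, 5% CO2. Viability was measured with CellTiter 96 Aqueous One and % inhibition calculated.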

[2] abbreviates: read-out: Proliferation in MiaPaca-2: IC50.

Read-outs that look alike come from different tables or passages of the source.

In the case of `Cc1c(-c2ccn(C3CC3)n2)cn2nc(-c3nccn3C)nc(Nc3cc(OCCCN(C)C)ccn3)c12` [Compound 148, 6-(1-Cyclopropyl-1H-pyrazol-3-yl)-N-(4-(3-(dimethylamino)propoxy)pyridin-2-yl)-5-methyl-2-(1-methyl-1H-imidazol-2-yl)pyrrolo[2,1-f][1,2,4]triazin-4-amine], the “% inh of Akt phosphorylation in Panc-1” value with Akt phosphorylation is reported as “A (1-25% inhibition)”. The inhibition with IL6 lay within 1 to 24%. Also, the inhibition at 10 µM in the test with TNF-alpha was in the range of 1 to 24%. Further, in test [1] (setting [2]), the IC50 was over 1000 nM.

For `Cc1c(-c2ccn(C3CC3)n2)cn2nc(-c3nccn3C)nc(Nc3cc(OC(F)F)ccn3)c12` [Compound 139, 6-(1-Cyclopropyl-1H-pyrazol-3-yl)-N-(4-(difluoromethoxy)pyridin-2-yl)-5-methyl-2-(1-methyl-1H-imidazol-2-yl)pyrrolo[2,1-f][1,2,4]triazin-4-amine], the “% inh of Akt phosphorylation in Panc-1” value in the test with Akt phosphorylation was “D* (85-100% activation)”. In addition, the inhibition in the test with IL6 was in the range of 50 to 74%. For the same molecule, the inhibition at 10 µM with TNF-alpha was 1 to 24%. Further, the IC50 in test [1] (setting [2]) is under 150 nM.

On to `COc1ccnc(Nc2nc(-c3nccn3C)nn3cc(-c4ccn(C)n4)c(C)c23)c1` [Compound 102, N-(4-Methoxypyridin-2-yl)-5-methyl-2-(1-methyl-1H-imidazol-2-yl)-6-(1-methyl-1H-pyrazol-3-yl)pyrrolo[2,1-f][1,2,4]triazin-4-amine], for which the “% inh of Akt phosphorylation in Panc-1” value in the test with Akt phosphorylation is given as “D* (85-100% activation)”. Also, the inhibition with IL6 fell in the range of 75 to 100%. The inhibition at 10 µM in the test on TNF-alpha was 25 to 49%. Besides, the IC50 in test [1] (Proliferation assay, MiaPaca-2, read-out: MiaPaca-2 IC50 (nM) Pancreatic) is 1 to 10 nM; in test [1] (setting [2]), under 150 nM.

Regarding `COc1ccnc(Nc2nc(-c3nccn3C)nn3cc(-c4cccnc4)c(-c4cccnc4)c23)c1` [Compound 169, N-(4-methoxypyridin-2-yl)-2-(1-methyl-1H-imidazol-2-yl)-5,6-di(pyridin-3-yl)pyrrolo[2,1-f][1,2,4]triazin-4-amine], the “% inh of Akt phosphorylation in Panc-1” value in the test with Akt phosphorylation is listed as “C* (46-84% activation)”. Further, the inhibition in the test with IL6 was in the range of 1 to 24%. Moreover, the inhibition at 10 µM in the test on TNF-alpha turned out to be 0%. Besides, in test [1] (setting [2]), the IC50 is under 150 nM.

On to `COCCO[C@H]1C[C@H](Nc2nc(-c3nccn3C)nn3cc(-c4ccnc(OC)c4)c(C)c23)C1` [Compound 161, N-((1r,3r)-3-(2-Methoxy-ethoxy)cyclo-butyl)-6-(2-methoxy-pyridin-4-yl)-5-methyl-2-(1-methyl-1H-imidazol-2-yl)pyrrolo[2,1-f][1,2,4]triazin-4-amine], for which the “% inh of Akt phosphorylation in Panc-1” value in the test on Akt phosphorylation is on record as “A* (1-25% activation)”. Besides, the inhibition with IL6 lay in the range of 75 to 100%. The inhibition at 10 µM with TNF-alpha lay within 50 to 74%. For the same molecule, the IC50 in test [1] (setting [2]) was over 1000 nM.

Turning to `COc1cc(Nc2nc(-c3nccn3C)nn3cc(-c4ccn(C(F)F)n4)c(C)c23)ncn1` [Compound 98, 6-(1-(Difluoromethyl)-1H-pyrazol-3-yl)-N-(6-methoxypyrimidin-4-yl)-5-methyl-2-(1-methyl-1H-imidazol-2-yl)pyrrolo[2,1-f][1,2,4]triazin-4-amine], the “% inh of Akt phosphorylation in Panc-1” value in the test on Akt phosphorylation is on record as “D* (85-100% activation)”. The inhibition in the test on IL6 was 1 to 24%. For the same molecule, in the test on TNF-alpha, the inhibition at 10 µM was 0%. The IC50 in test [1] (setting [2]) is under 150 nM.

Consider `Cc1c(-c2ccn(C3CC3)n2)cn2nc(-c3nccn3C)nc(Nc3cc(OC(F)(F)F)ccn3)c12` [Compound 138, 6-(1-Cyclopropyl-1H-pyrazol-3-yl)-5-methyl-2-(1-methyl-1H-imidazol-2-yl)-N-(4-(trifluoromethoxy)pyridin-2-yl)pyrrolo[2,1-f][1,2,4]triazin-4-amine], for which the “% inh of Akt phosphorylation in Panc-1” value with Akt phosphorylation is “D* (85-100% activation)”. Besides, in the test with IL6, the inhibition was in the range of 50 to 74%. Besides, the inhibition at 10 µM in the test on TNF-alpha came out at 0%. In addition, the IC50 in test [1] (setting [2]) was under 150 nM.

Regarding `CO[C@H]1C[C@H](Nc2nc(-c3nccn3C)nn3cc(-c4ccncc4)c(C)c23)C1` [Compound 159, N-((1r,3r)-3-Methoxycyclobutyl)-5-methyl-2-(1-methyl-1H-imidazol-2-yl)-6-(pyridin-4-yl)pyrrolo[2,1-f][1,2,4]triazin-4-amine], in the test with Akt phosphorylation, the “% inh of Akt phosphorylation in Panc-1” value is reported as “B (26-49% inhibition)”. In addition, in the test on IL6, the inhibition was in the range of 1 to 24%. The inhibition at 10 µM with TNF-alpha was 0%. Besides, in test [1] (setting [2]), the IC50 is over 1000 nM.

As to `Cc1c(-c2ccn(C(C)C)n2)cn2nc(-c3nccn3C)nc(Nc3nccn3C)c12` [Compound 93, 6-(1-Isopropyl-1H-pyrazol-3-yl)-5-methyl-N,2-bis(1-methyl-1H-imidazol-2-yl)pyrrolo[2,1-f][1,2,4]triazin-4-amine], the “% inh of Akt phosphorylation in Panc-1” value with Akt phosphorylation is on record as “D* (85-100% activation)”. Besides, the inhibition in the test on IL6 was in the range of 75 to 100%. For the same molecule, the inhibition at 10 µM with TNF-alpha fell in the range of 75 to 100%. In addition, the IC50 in test [1] (setting [2]) lay within 150 to 500 nM.

On to `CO[C@H]1C[C@@H](Nc2nc(-c3nccn3C)nn3cc(-c4cccnc4)c(C)c23)C1` [Compound 153, N-((1s,3s)-3-methoxy-cyclobutyl)-5-methyl-2-(1-methyl-1H-imidazol-2-yl)-6-(pyridin-3-yl)pyrrolo[2,1-f][1,2,4]triazin-4-amine], for which the “% inh of Akt phosphorylation in Panc-1” value in the test on Akt phosphorylation is “B (26-49% inhibition)”. Moreover, the inhibition in the test on IL6 was determined as 0%. Besides, in the test with TNF-alpha, the inhibition at 10 µM is 0%. In addition, the IC50 in test [1] (setting [2]) was over 1000 nM.

As for `COCCOc1cc(Nc2nc(-c3nccn3C)nn3cc(-c4ccn(C(C)C)n4)c(C)c23)ncn1` [Compound 122, 6-(1-Isopropyl-1H-pyrazol-3-yl)-N-(6-(2-methoxyethoxy)pyrimidin-4-yl)-5-methyl-2-(1-methyl-1H-imidazol-2-yl)pyrrolo[2,1-f][1,2,4]triazin-4-amine], the “% inh of Akt phosphorylation in Panc-1” value with Akt phosphorylation is given as “C* (46-84% activation)”. The inhibition in the test on IL6 lay within 50 to 74%. Besides, in the test with TNF-alpha, the inhibition at 10 µM was in the range of 1 to 24%. In addition, the IC50 in test [1] (setting [2]) is under 150 nM.

Consider `Cc1c(-c2ccn(C)n2)cn2nc(-c3nccn3C)nc(Nc3n[nH]c(C4CC4)n3)c12` [Compound 113, N-(5-Cyclopropyl-1H-1,2,4-triazol-3-yl)-5-methyl-2-(1-methyl-1H-imidazol-2-yl)-6-(1-methyl-1H-pyrazol-3-yl)pyrrolo[2,1-f][1,2,4]triazin-4-amine], for which, in the test with Akt phosphorylation, the “% inh of Akt phosphorylation in Panc-1” value is given as “D* (85-100% activation)”. The inhibition with IL6 lay within 75 to 100%. The inhibition at 10 µM in the test with TNF-alpha is 25 to 49%. In addition, in test [1] (setting [2]), the IC50 is under 150 nM.

As for `Cc1c(-c2ccn(C)n2)cn2nc(-c3nccn3C)nc(Nc3ncccn3)c12.Cl` [Compound 115, 5-Methyl-2-(1-methyl-1H-imidazol-2-yl)-6-(1-methyl-1H-pyrazol-3-yl)-N-(pyrimidin-2-yl)pyrrolo[2,1-f][1,2,4]triazin-4-amine hydrochloride salt], in the test with Akt phosphorylation, the “% inh of Akt phosphorylation in Panc-1” value was “D* (85-100% activation)”. Moreover, the inhibition in the test on IL6 lay within 50 to 74%. The inhibition at 10 µM with TNF-alpha was found to be 0%. Besides, in test [1] (setting [2]), the IC50 was under 150 nM.

For the molecule `Cc1c(-c2ccn(C)n2)cn2nc(-c3nccn3C)nc(Nc3cc(OC(C)C)ccn3)c12` [Compound 136, N-(4-Isopropoxypyridin-2-yl)-5-methyl-2-(1-methyl-1H-imidazol-2-yl)-6-(1-methyl-1H-pyrazol-3-yl)pyrrolo[2,1-f][1,2,4]triazin-4-amine], in the test on Akt phosphorylation, the “% inh of Akt phosphorylation in Panc-1” value was “D* (85-100% activation)”. Moreover, the inhibition with IL6 fell in the range of 25 to 49%. Further, the inhibition at 10 µM with TNF-alpha was 1 to 24%. Besides, the IC50 in test [1] (setting [2]) was under 150 nM.

`CO[C@H]1CC[C@@H](Nc2nc(-c3nccn3C)nn3cc(-c4cccnc4)c(C)c23)C1` (racemic) [Compound 155, rac N-((1R,3S)-3-methoxy-cyclopentyl)-5-methyl-2-(1-methyl-1H-imidazol-2-yl)-6-(pyridin-3-yl)pyrrolo[2,1-f][1,2,4]triazin-4-amine]: the “% inh of Akt phosphorylation in Panc-1” value with Akt phosphorylation is reported as “A (1-25% inhibition)”. The inhibition with IL6 was 25 to 49%. The inhibition at 10 µM in the test with TNF-alpha came out at 0%. Moreover, the IC50 in test [1] (setting [2]) is over 1000 nM.

For the molecule `Cc1c(-c2ccn(C(C)C)n2)cn2nc(-c3nccn3C)nc(Nc3ncc[nH]3)c12` [Compound 125, N-(1H-Imidazol-2-yl)-6-(1-isopropyl-1H-pyrazol-3-yl)-5-methyl-2-(1-methyl-1H-imidazol-2-yl)pyrrolo[2,1-f][1,2,4]triazin-4-amine], in the test on Akt phosphorylation, the “% inh of Akt phosphorylation in Panc-1” value was “D* (85-100% activation)”. Also, the inhibition in the test on IL6 lay in the range of 50 to 74%. Besides, in the test with TNF-alpha, the inhibition at 10 µM fell in the range of 1 to 24%. Moreover, the IC50 in test [1] (setting [2]) is 150 to 500 nM.

As for `CO[C@H]1C[C@H](Nc2nc(-c3nccn3C)nn3cc(-c4cccnc4)c(-c4ccccn4)c23)C1` [Compound 168, N-((1r,3r)-3-Methoxycyclobutyl)-2-(1-methyl-1H-imidazol-2-yl)-5-(pyridin-2-yl)-6-(pyridin-3-yl)pyrrolo[2,1-f][1,2,4]triazin-4-amine], in the test on Akt phosphorylation, the “% inh of Akt phosphorylation in Panc-1” value is on record as 0 (0% inhibition). In addition, the inhibition in the test on IL6 fell in the range of 1 to 24%. The inhibition at 10 µM with TNF-alpha was 25 to 49%. In addition, the IC50 in test [1] (setting [2]) was over 1000 nM.

`COc1ccnc(Nc2nc(-c3nccn3C)nn3cc(-c4ccn(C)n4)c(C)c23)n1.Cl` [Compound 114, N-(4-Methoxypyrimidin-2-yl)-5-methyl-2-(1-methyl-1H-imidazol-2-yl)-6-(1-methyl-1H-pyrazol-3-yl)pyrrolo[2,1-f][1,2,4]triazin-4-amine hydrochloride salt]: the “% inh of Akt phosphorylation in Panc-1” value in the test on Akt phosphorylation was “D* (85-100% activation)”. Further, the inhibition in the test with IL6 lay within 75 to 100%. The inhibition at 10 µM in the test with TNF-alpha lay in the range of 50 to 74%. Also, the IC50 in test [1] (setting [2]) is under 150 nM.
